# Experimental data: patent US20180125835A1, “Dosage and Use of an A2A Antagonist” (H. Lundbeck A/S, priority 2014, published 2018)
# Read-outs that look alike come from different tables or passages of the source.
# Columns and labels:
# [1] = biological target: T1, A2A receptor (Rattus norvegicus, UniProt P30543); experiment: Striatal A2A occupancy in rats by ex vivo autoradiography; set-up: incubation of the tracer with brain slices obtained from rats dosed with compound 504; from tissue; host or cells: striatum in coronal brain sections of male CD rats (Charles River Japan)
# T1 sequence (P30543 whole entry): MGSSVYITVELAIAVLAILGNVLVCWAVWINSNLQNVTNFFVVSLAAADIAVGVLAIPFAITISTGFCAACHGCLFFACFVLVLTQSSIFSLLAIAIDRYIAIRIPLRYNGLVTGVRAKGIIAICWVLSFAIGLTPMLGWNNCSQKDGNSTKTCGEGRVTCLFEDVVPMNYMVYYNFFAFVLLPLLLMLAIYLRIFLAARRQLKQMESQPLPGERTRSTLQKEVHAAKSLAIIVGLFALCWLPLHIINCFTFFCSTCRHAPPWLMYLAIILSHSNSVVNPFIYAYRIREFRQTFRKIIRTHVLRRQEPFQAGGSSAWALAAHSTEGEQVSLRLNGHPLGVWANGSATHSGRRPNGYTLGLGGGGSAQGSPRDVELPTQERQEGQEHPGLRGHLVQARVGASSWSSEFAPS
# Description: After that the artery and vein blood was collected into tubes containing heparin. Immediately after that the brain was removed and ebbed in OCT compound and frozen in 2-methyl butane cooled with dry ice. The frozen brains were preserved at −80 C until use.
# Coronal sections (20 μm) at about bregma 1.2 mm were prepared using a cyromicrotome (Coldtome, set temperature—20 C), Sakura) and placed on a slide glass (Super Frost, Matsunami Glass; 2 or 3 sections per glass). The brain sections collected on the slide glass were preserved at −80 C. Seventy μL of the reaction solution containing the tracer at 0.1 or 0.3 nmol/L was applied on the brain section and incubated at room temperature for the preset time. The reaction solution containing the tracer was handled using siliconized tools. After the incubation with the tracer, the brain section was washed for 1 minute with ice-cold wash solution three times and rinsed with ice-cold water twice. Non-specific binding of the tracer was evaluated by performing the same reaction with the brain section prepared from drug-untreated rats in the presence of 0.1 mmol/1 NECA. The brain section was dried at room temperature, exposed to the imaging plate (BAS-TR2040, Fuji Film) in a cassette, and left in a shield box for about 24 hours. The radioactivity was recorded under the following conditions: Resolution: 50 μm; Gradation: 256; Sensitivity: 10000; Latitude:5.
# These plasma samples were used as calibration curve samples.
# To pre-treat plasma samples, the internal standard (I.S.) was dissolved in acetonitrile to prepare an I.S. solution at 0.03 μg/mL. Plasma sample was diluted with control plasma whenever necessary. To 0.1 mL of plasma sample, 10 μL of the I.S. solution and 1 mL of 10 mmol/L ammonium acetate were added and stirred to prepare the sample for pretreatment. The sample was pretreated using Oasis HLB Extraction Plate (30 mg, Waters). Each well was serially conditioned with 1 mL of methanol and water. One ml of the sample for pretreatment was loaded on a well. After each well was washed with 1 mL of 5% vol % methanol, the analyte was eluted with 1 mL acethonitrile. The eluate was evaporated under nitrogen gas stream and the residue was redssolved in 0.1 mL of the reconstituted solution. The sample was centrifuged at 4 C, about 1800×G for 5 minutes using […] (0.45 μm hydrophilic PVDF, Whatman). An aliquote of the filtrate was used for analysis.
# Calculation of the A2A receptor occupancy in striatum was done using the below formula
# Φ(%)=(1−(PSLKW−BG/A)/(PSLctrl−BG/A))*100
# Where PSLKW- and PSLctrl are PSL values in the ROI of compound 504-[…] animal, respectively. PLS is Photo stimulated luminescence for detection of tracer and ROI is region of interest for tracer measurement in striatum. […]
# [2] = biological target: A2A receptor (Callithrix jacchus, UniProt A0A8I3X4X6); experiment: Adenosine receptor binding affinity, marmoset A2A
# A2A receptor (Callithrix jacchus, UniProt A0A8I3X4X6), sequence (A0A8I3X4X6 1-410): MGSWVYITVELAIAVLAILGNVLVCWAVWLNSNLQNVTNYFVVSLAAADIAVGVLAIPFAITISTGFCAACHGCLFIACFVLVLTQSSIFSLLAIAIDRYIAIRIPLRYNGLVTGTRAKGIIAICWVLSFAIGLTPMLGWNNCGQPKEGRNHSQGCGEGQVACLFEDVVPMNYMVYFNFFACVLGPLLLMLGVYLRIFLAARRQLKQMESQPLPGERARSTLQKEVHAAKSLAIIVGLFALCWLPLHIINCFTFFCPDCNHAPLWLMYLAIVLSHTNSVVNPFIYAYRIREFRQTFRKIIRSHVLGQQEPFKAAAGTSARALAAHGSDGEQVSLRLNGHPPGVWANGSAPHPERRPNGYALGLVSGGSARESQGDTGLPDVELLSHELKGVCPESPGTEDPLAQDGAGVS
# [3] = system: Long Evans rats; experiment: Locomotor activity in habituated rats; assay type: in vivo, rat
# Source text: Sixteen (16) male Long Evans rats were habituated to Med Associates test activity chambers (17″ W×17″ L×12″ H) over three, 90-minute sessions. […] Total distance travelled and rearing counts for the total session were the primary measure.
# [4] = biological target: A2A receptor (Homo sapiens, UniProt P29274); experiment: PET study in humans of A2A receptor occupancy with [11C]-SCH442416; assay type: in vivo; conditions: for EC50: plasma concentration at PET scan, read-out: estimated EC50 of A2A receptor occupancy (converted)
# A2A receptor (Homo sapiens, UniProt P29274), sequence (P29274 whole entry): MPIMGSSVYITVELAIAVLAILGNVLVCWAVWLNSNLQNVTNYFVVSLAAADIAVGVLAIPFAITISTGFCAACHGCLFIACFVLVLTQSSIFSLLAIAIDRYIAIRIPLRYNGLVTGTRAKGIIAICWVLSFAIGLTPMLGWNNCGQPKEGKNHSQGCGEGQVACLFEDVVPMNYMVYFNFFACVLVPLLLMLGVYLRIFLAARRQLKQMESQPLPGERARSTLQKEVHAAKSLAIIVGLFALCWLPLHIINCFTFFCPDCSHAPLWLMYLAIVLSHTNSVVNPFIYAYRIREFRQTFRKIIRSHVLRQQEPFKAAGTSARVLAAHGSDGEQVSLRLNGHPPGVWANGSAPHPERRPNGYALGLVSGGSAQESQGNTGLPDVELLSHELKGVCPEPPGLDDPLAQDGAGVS
# Description: There were 3 cohorts in the study, each including 2 subjects.
# In the Screening period (Days −28 to −4) safety screening procedures were performed and subject eligibility was confirmed following a magnetic resonance imaging (MRI) scan (Days −21 to −2). Eligible subjects were admitted to the clinic on Day −1. […] The subjects received the PET tracer [11C]-SCH442416 immediately prior to each PET scan.
# The PET tracer, [11C]-SCH442416 was provided as a radiopharmaceutical in an 11 mL sterile and pyrogen free type 1 glass vial as a solution for intravenous administration. The [11C]-SCH442416 solution consisted of up to 10% ethanol and 90% saline and was administered as an intravenous bolus in approximately […] of the saline/ethanol solution over approximately 20 seconds. Each subject received a maximum of 500 MBq of [11C]-SCH442416 for each PET scan.
# PET data were analysed using the simplified reference tissue method (SRTM). […] The SRTM implementation employed directly estimated the binding potential relative to the non-displaceable component (BPND), which can be thought of as a measure of specific binding.
# Receptor occupancy (RO) in a region of interest (ROI) can then be calculated directly as: RO=100×(1−BPND(post-dose)/BPND(baseline))
# Binding potential and estimated RO were listed and presented graphically versus CPET.
# [5] = biological target: T1, A2A receptor; experiment: Adenosine receptor binding affinity, rat A2A
# [6] = biological target: T2, A1 receptor (Callithrix jacchus, UniProt U3EV00); experiment: Adenosine receptor binding affinity, marmoset A1
# T2 sequence (U3EV00 1-326): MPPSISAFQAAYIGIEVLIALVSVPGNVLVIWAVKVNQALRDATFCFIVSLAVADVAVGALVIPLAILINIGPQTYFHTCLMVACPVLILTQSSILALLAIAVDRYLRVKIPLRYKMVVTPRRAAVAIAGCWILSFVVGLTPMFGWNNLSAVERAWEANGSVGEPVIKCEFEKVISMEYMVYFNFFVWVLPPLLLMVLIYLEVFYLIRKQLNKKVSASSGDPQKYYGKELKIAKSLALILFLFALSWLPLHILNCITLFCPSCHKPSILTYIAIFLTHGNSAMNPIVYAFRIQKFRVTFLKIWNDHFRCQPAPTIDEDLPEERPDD
compound,measurement,setting,value
Cc1ccc(C(=O)Nc2nc(-c3ccco3)c(C(=O)C3CCOCC3)s2)cn1 [Compound 504],equilibration half-life,"[1]; hysteresis evaluation, semi compartment PK model, rat",< 30 min
same,EC80 plasma concentration of rat striatal occupancy,[1]; predicted from rat occupancy Emax PK/PD model,1.25 µg/mL
same,EC50,"[1]; rat, 0.3 mg/kg oral, Emax model, 95% CI 113 to 128 ng/mL, read-out: EC50 plasma concentration for striatal A2A receptor occupancy (converted)",304 nM
same,receptor occupancy at 0.175 µg/mL,"[1]; rat, read-out: A2A occupancy corresponding to marmoset EC80 of 175 ng/mL",> 50%
same,Ki,[2],0.113 ± 0.0046 nM
same,locomotor activity (distance travelled and rearing counts),"[3]; 0.01-1 mg/kg oral, 90 min test session",dose related increase
same,timecourse of locomotor activity changes,"[3]; 90 min session, all doses",peaked during the first 10 min timebin
same,dose at which magnitude of locomotor effect plateaued,"[3]; oral, 90 min session",0.06 to 0.1 mg/kg
same,effect size on locomotor activity compared with amphetamine (1 mg/kg IP),[3]; same study,significantly less
same,estimated Emax of A2A receptor occupancy,"[4]; globus pallidus, Emax model vs CPET",101%
same,EC50,[4]; globus pallidus,173 nM
same,EC50,[4]; putamen,78 nM
same,dosage sufficient to reach an occupancy of 80%,"[4]; single oral dose, healthy young men",≤ 3 mg
same,Ki,[5],0.1 ± 0.0072 nM
same,Ki,[6],305 ± 6.6 nM
